# Measurements: patent publication US9718828B2 (MERCK SHARP & DOHME CORP., priority 2011, dated 2017)
# Counter-ions that a name gives are not always drawn.
# Molecular target: hBTK (full-length BTK, 6HIS-tag cleaved) (Homo sapiens (Human), UniProt Q06187)
# Assay: BTK enzymatic activity, LANCE TR-FRET assay (Assay Method C)
# Format: biochemical
# Details: LANCE TR-FRET, 50 pM hBTK, 25 μM ATP; class 100-1000 is given as ≧100 nM-<1 μM; read-out: IC50 Btk activity values - Assay Method C
# Sequence of hBTK (full-length BTK, 6HIS-tag cleaved) (Q06187 whole entry): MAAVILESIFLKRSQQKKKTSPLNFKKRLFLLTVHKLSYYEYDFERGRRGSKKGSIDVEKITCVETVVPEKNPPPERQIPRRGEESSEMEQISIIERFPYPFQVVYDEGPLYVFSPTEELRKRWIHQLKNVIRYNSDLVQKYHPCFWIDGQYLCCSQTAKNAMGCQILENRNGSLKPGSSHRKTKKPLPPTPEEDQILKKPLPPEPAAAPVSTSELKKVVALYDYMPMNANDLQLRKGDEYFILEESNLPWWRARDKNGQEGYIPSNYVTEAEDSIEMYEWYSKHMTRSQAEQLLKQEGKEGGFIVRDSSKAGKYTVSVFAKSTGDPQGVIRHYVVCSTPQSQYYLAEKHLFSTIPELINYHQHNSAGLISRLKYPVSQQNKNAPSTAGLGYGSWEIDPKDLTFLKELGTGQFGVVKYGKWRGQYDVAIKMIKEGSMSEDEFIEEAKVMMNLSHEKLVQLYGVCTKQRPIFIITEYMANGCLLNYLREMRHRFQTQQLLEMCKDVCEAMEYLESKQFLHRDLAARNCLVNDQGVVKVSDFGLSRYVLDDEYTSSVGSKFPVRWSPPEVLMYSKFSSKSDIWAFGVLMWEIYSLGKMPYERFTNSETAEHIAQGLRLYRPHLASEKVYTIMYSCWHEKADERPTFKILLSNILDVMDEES
row,IC50 [nM],Compound
1,10 to 100,"Nc1nccn2c([C@@H]3CN[C@H](CO)CO3)nc(-c3ccc(C(=O)Nc4cc(C(F)(F)F)ccn4)cc3)c12 [Example 547, 4-{8-amino-3-[(2S,5R)-5-(hydroxymethyl)morpholin-2-yl]imidazo[1,5-a]pyrazin-1-yl}-N-[4-(trifluoromethyl)pyridin-2-yl]benzamide, TFA salt]"
2,< 10,"Cn1cc(CN2C[C@H](c3nc(-c4ccc(C(=O)Nc5cc(C(F)(F)F)ccn5)cc4)c4c(N)nccn34)OC[C@@H]2CO)cn1 [Example 548, 4-(8-amino-3-{(2R,5S)-5-(hydroxymethyl)-4-[(1-methyl-1H-pyrazol-4-yl)methyl]morpholin-2-yl}imidazo[1,5-a]pyrazin-1-yl)-N-[4-(trifluoromethyl)pyridin-2-yl]benzamide, TFA salt]"
3,< 10,"COCC(=O)N1CCO[C@@H](c2nc(-c3ccc(C(=O)Nc4cc(C(F)(F)F)ccn4)cc3F)c3c(N)nccn23)C1 [Example 551, 4-{8-amino-3-[(2R)-4-(methoxyacetyl)morpholin-2-yl]imidazo[1,5-a]pyrazin-1-yl}-3-fluoro-N-[4-(trifluoromethyl)pyridin-2-yl]benzamide, TFA salt]"
4,< 10,"Nc1ncnc2c1c(-c1ccc(C(=O)Nc3cc(C(F)(F)F)ccn3)cc1)nn2[C@H]1CCCc2[nH]ncc21 [Example 555, 4-{4-amino-1-[(4S)-4,5,6,7-tetrahydro-1H-indazol-4-yl]-1H-pyrazolo[3,4-d]pyrimidin-3-yl}-N-[4-(trifluoromethyl)pyridin-2-yl]benzamide, TFA salt]"
5,< 10,"Nc1ncnc2c1c(-c1ccc(C(=O)Nc3cc(C(F)(F)F)ccn3)cc1)nn2[C@H]1CC[C@H](C(F)(F)F)NC1 [Example 556, 4-{4-amino-1-[(3S,6R)-6-(trifluoromethyl)piperidin-3-yl]-1H-pyrazolo[3,4-d]pyrimidin-3-yl}-N-[4-(trifluoromethyl)pyridin-2-yl]benzamide, TFA salt]"

# The remaining lines, values behind:
row,Compound,IC50 [nM]
1,"CCN1C[C@H](c2nc(-c3ccc(C(=O)Nc4cc(C(F)(F)F)ccn4)cc3)c3c(N)nccn23)OC[C@@H]1CO [Example 549, 4-{8-amino-3-[(2R,5S)-4-ethyl-5-(hydroxymethyl)morpholin-2-yl]imidazo[1,5-a]pyrazin-1-yl}-N-[4-(trifluoromethyl)pyridin-2-yl]benzamide, TFA salt]",< 10
2,"Nc1nccn2c([C@H]3CN(C4COC4)CCO3)nc(-c3ccc(C(=O)Nc4cc(C(F)(F)F)ccn4)cc3)c12 [Example 550, 4-{8-amino-3-[(2R)-4-oxetan-3-ylmorpholin-2-yl]imidazo[1,5-a]pyrazin-1-yl}-N-[4-(trifluoromethyl)pyridin-2-yl]benzamide, TFA salt]",< 10
3,"Cn1ncc2c1CCC[C@H]2n1nc(-c2ccc(C(=O)Nc3cc(C(F)(F)F)ccn3)cc2)c2c(N)ncnc21 [Example 552, 4-{4-amino-1-[(4R)-1-methyl-4,5,6,7-tetrahydro-1H-indazol-4-yl]-1H-pyrazolo[3,4-d]pyrimidin-3-yl}-N-[4-(trifluoromethyl)pyridin-2-yl]benzamide, TFA salt]",< 10
4,"Cn1ncc2c1CCC[C@@H]2n1nc(-c2ccc(C(=O)Nc3cc(C(F)(F)F)ccn3)cc2)c2c(N)ncnc21 [Example 553, 4-{4-amino-1-[(4S)-1-methyl-4,5,6,7-tetrahydro-1H-indazol-4-yl]-1H-pyrazolo[3,4-d]pyrimidin-3-yl}-N-[4-(trifluoromethyl)pyridin-2-yl]benzamide, TFA salt]",< 10
5,"Nc1ncnc2c1c(-c1ccc(C(=O)Nc3cc(C(F)(F)F)ccn3)cc1)nn2[C@@H]1CCCc2[nH]ncc21 [Example 554, 4-{4-amino-1-[(4R)-4,5,6,7-tetrahydro-1H-indazol-4-yl]-1H-pyrazolo[3,4-d]pyrimidin-3-yl}-N-[4-(trifluoromethyl)pyridin-2-yl]benzamide, TFA salt]",10 to 100
